What was measured:
Format in all cases: in vivo
[1] = tested on: Diabrotica balteata (corn root worm); assay: Example B1: Diabrotica balteata (corn root worm), sprayed maize sprouts, L2 larvae; settings: 96 h, application rate of 200 ppm, 4 days after infestation, L2 larvae on maize sprouts, read-out: control in at least one of the two categories (mortality or growth inhibition)
Description: Example B1: Diabrotica Balteata (Corn Root Worm)
Maize sprouts placed onto an agar layer in 24-well microtiter plates were treated with aqueous test solutions prepared from 10′000 ppm DMSO stock solutions by spraying. After drying, the plates were infested with L2 larvae (6 to 10 per well). The samples were assessed for mortality and growth inhibition in comparison to untreated samples 4 days after infestation.

[2] = tested on: Euschistus heros (neotropical brown stink bug); assay: Example B2: Euschistus heros (neotropical brown stink bug), sprayed soybean leaves, N2 nymphs; settings: 120 h, application rate of 200 ppm, 5 days after infestation, N2 nymphs on soybean leaves, read-out: control in at least one of the two categories (mortality or growth inhibition)
Description: Example B2: Euschistus heros (Neotropical Brown Stink Bug)
Soybean leaves on agar in 24-well microtiter plates were sprayed with aqueous test solutions prepared from 10′000 ppm DMSO stock solutions. After drying the leaves were infested with N2 nymphs. The samples were assessed for mortality and growth inhibition in comparison to untreated samples 5 days after infestation.

[3] = tested on: Chilo suppressalis (striped rice stemborer); assay: Example B4: Chilo suppressalis (striped rice stemborer), artificial diet, L2 larvae; settings: 144 h, application rate of 200 ppm, 6 days after infestation, L2 larvae on artificial diet, read-out: control in at least one of the three categories (mortality, anti-feeding or growth inhibition)
Description: Example B4: Chilo suppressalis (Striped rice stemborer)
24-well microtiter plates with artificial diet were treated with aqueous test solutions prepared from 10′000 ppm DMSO stock solutions by pipetting. After drying, the plates were infested with L2 larvae (6-8 per well). The samples were assessed for mortality, anti-feeding effect, and growth inhibition in comparison to untreated samples 6 days after infestation. Control of Chilo suppressalis by a test sample is given when at least one of the categories mortality, anti-feedant effect, and growth inhibition is higher than the untreated sample.

[4] = tested on: Plutella xylostella (diamond back moth); assay: Example B5: Plutella xylostella (diamond back moth), artificial diet, 24-well, eggs; settings: 192 h, application rate of 200 ppm, 8 days after infestation, read-out: control in at least one of the two categories (mortality or growth inhibition)
Description: Example B5: Plutella xylostella (Diamond Back Moth)
24-well microtiter plates with artificial diet were treated with aqueous test solutions prepared from 10′000 ppm DMSO stock solutions by pipetting. After drying, Plutella eggs were pipetted through a plastic stencil onto a gel blotting paper and the plate was closed with it. The samples were assessed for mortality and growth inhibition in comparison to untreated samples 8 days after infestation.

[5] = tested on: Myzus persicae (green peach aphid); assay: Example B6: Myzus persicae (green peach aphid), intrinsic activity; settings: 120 h, test rate of 12 ppm, 5 days after infestation, sucrose solution, infested pea seedlings
Text: Example B6: Myzus persicae (Green Peach Aphid): Intrinsic Activity
Test compounds prepared from 10′000 ppm DMSO stock solutions were applied by pipette into 24-well microtiter plates and mixed with sucrose solution. The plates were closed with a stretched Parafilm. A plastic stencil with 24 holes was placed onto the plate and infested pea seedlings were placed directly on the Parafilm. The infested plate was closed with a gel blotting paper and another plastic stencil and then turned upside down. The samples were assessed for mortality 5 days after infestation.

[6] = tested on: Spodoptera littoralis (Egyptian cotton leaf worm); assay: Example B7: Spodoptera littoralis (Egyptian cotton leaf worm), sprayed cotton leaf discs, L1 larvae; settings: foliar, 72 h, application rate of 200 ppm, 3 days after infestation, L1 larvae on cotton leaf discs, read-out: control in at least one of the three categories (mortality, anti-feeding or growth inhibition)
Description: Example B7: Spodoptera littoralis (Egyptian Cotton Leaf Worm)
Cotton leaf discs were placed onto agar in 24-well microtiter plates and sprayed with aqueous test solutions prepared from 10′000 ppm DMSO stock solutions. After drying the leaf discs were infested with five L1 larvae. The samples were assessed for mortality, anti-feeding effect, and growth inhibition in comparison to untreated samples 3 days after infestation. Control of Spodoptera littoralis by a test sample is given when at least one of the categories mortality, anti-feedant effect, and growth inhibition is higher than the untreated sample.

[7] = tested on: Myzus persicae (green peach aphid); assay: Example B9: Myzus persicae (green peach aphid), 96-well sucrose solution; settings: 120 h, application rate of 50 ppm, 5 days after infestation
Text: Example B9: Myzus persicae (Green Peach Aphid)
Test compounds prepared from 10′000 ppm DMSO stock solutions were applied by a liquid handling robot into 96-well microtiter plates and mixed with a sucrose solution. Parafilm was stretched over the 96-well microtiter plate and a plastic stencil with 96 holes was placed onto the plate. Aphids were sieved into the wells directly onto the Parafilm. The infested plates were closed with a gel blotting card and a second plastic stencil and then turned upside down. The samples were assessed for mortality 5 days after infestation.

[8] = tested on: Plutella xylostella (diamondback moth); assay: Example B10: Plutella xylostella (diamondback moth), 96-well artificial diet; settings: 216 h, application rate of 500 ppm, 9 days after infestation, eggs/L1 larvae
Description: Example B10: Plutella xylostella (Diamondback Moth)
96-well microtiter plates containing artificial diet were treated with aqueous test solutions, prepared from 10′000 ppm DMSO stock solutions, by a liquid handling robot. After drying, eggs (˜30 per well) were infested onto a netted lid which was suspended above the diet. The eggs hatch and L1 larvae move down to the diet. The samples were assessed for mortality 9 days after infestation.

[9] = tested on: Bemisia tabaci (cotton white fly); assay: Example B3: Bemisia tabaci (cotton white fly), feeding/contact activity; settings: foliar, 144 h, application rate of 200 ppm, 6 days after incubation, adult white flies on cotton leaf discs
Description: Example B3: Bemisia tabaci (Cotton White Fly): Feeding/Contact Activity
Cotton leaf discs were placed on agar in 24-well microtiter plates and sprayed with aqueous test solutions prepared from 10′000 ppm DMSO stock solutions. After drying the leaf discs were infested with adult white flies. The samples were checked for mortality 6 days after incubation.

[10] = tested on: Spodoptera littoralis (Egyptian cotton leaf worm); assay: Example B8: Spodoptera littoralis (Egyptian cotton leaf worm), uptake by lettuce roots from agar; settings: 144 h, test rate of 12.5 ppm, 6 days after infestation, compound absorbed by lettuce roots, read-out: control in at least one of the three categories (mortality, anti-feeding, or growth inhibition)
Text: Example B8: Spodoptera littoralis (Egyptian Cotton Leaf Worm)
Test compounds were applied by pipette from 10′000 ppm DMSO stock solutions into 24-well plates and mixed with agar. Lettuce seeds were placed onto the agar and the multi well plate was closed by another plate which contained also agar. After 7 days the compound was absorbed by the roots and the lettuce grew into the lid plate. The lettuce leaves were then cut off into the lid plate. Spodoptera eggs were pipetted through a plastic stencil onto a humid gel blotting paper and the lid plate was closed with it. The samples were assessed for mortality, anti-feedant effect and growth inhibition in comparison to untreated samples 6 days after infestation.

[11] = tested on: Tetranychus urticae (two-spotted spider mite); assay: Example B11: Tetranychus urticae (two-spotted spider mite), feeding/contact activity; settings: foliar, 192 h
Description: Example B11: Tetranychus urticae (Two-Spotted Spider Mite): Feeding/Contact Activity
Bean leaf discs on agar in 24-well microtiter plates were sprayed with aqueous test solutions prepared from 10′000 ppm DMSO stock solutions. After drying the leaf discs were infested with a mite population of mixed ages. The samples were assessed for mortality on mixed population (mobile stages) 8 days after infestation.

CC(NC(=O)c1cc(OC(F)F)cc(C(F)(F)F)c1)c1nccnc1-c1ncc(OCC(F)F)cn1 (stereo not drawn) [Compound P28, N-[1-[3-[5-(2,2-difluoroethoxy)pyrimidin-2-yl]pyrazin-2-yl]ethyl]-3-(difluoromethoxy)-5-(trifluoromethyl)benzamide]
≥ 80%: percent control (mortality or growth inhibition) at 200 ppm [1] | percent control (mortality or growth inhibition) at 200 ppm [2] | control at 200 ppm [3] | percent control (mortality or growth inhibition) at 200 ppm [4] | mortality at 12 ppm [5] | percent control (mortality, anti-feeding or growth inhibition) at 200 ppm [6] | mortality at 50 ppm [7] | mortality at 500 ppm [8]

CC(NC(=O)c1cc(Br)cc(C(F)(F)F)c1)c1nccnc1-c1ncc(OCC(F)F)cn1 (stereo not drawn) [Compound P35, 3-bromo-N-[1-[3-[5-(2,2-difluoroethoxy)pyrimidin-2-yl]pyrazin-2-yl]ethyl]-5-(trifluoromethyl)benzamide]
≥ 80%: percent control (mortality or growth inhibition) at 200 ppm [1] | percent control (mortality or growth inhibition) at 200 ppm [2] | mortality at 200 ppm [9] | control at 200 ppm [3] | percent control (mortality or growth inhibition) at 200 ppm [4] | mortality at 12 ppm [5] | percent control (mortality, anti-feeding or growth inhibition) at 200 ppm [6] | percent control (mortality, anti-feeding or growth inhibition) at 12.5 ppm [10]

CC(NC(=O)c1cc(Br)cc(C(F)(F)F)c1)c1nccnc1-c1ncc(OC(F)F)cn1 (stereo not drawn) [Compound P23, 3-bromo-N-[1-[3-[5-(difluoromethoxy)pyrimidin-2-yl]pyrazin-2-yl]ethyl]-5-(trifluoromethyl)benzamide]
≥ 80%: percent control (mortality or growth inhibition) at 200 ppm [1] | control at 200 ppm [3] | percent control (mortality or growth inhibition) at 200 ppm [4] | mortality at 12 ppm [5] | percent control (mortality, anti-feeding or growth inhibition) at 200 ppm [6] | percent control (mortality, anti-feeding or growth inhibition) at 12.5 ppm [10] | mortality at 50 ppm [7] | mortality at 500 ppm [8]

C[C@H](NC(=O)c1cc(C(F)(F)F)cc(C(F)(F)F)c1)c1nccnc1-c1ccc(OC(F)F)cn1 [Compound P24, N-[(1S)-1-[3-[5-(difluoromethoxy)-2-pyridyl]pyrazin-2-yl]ethyl]-3,5-bis(trifluoromethyl)benzamide]
≥ 80%: percent control (mortality or growth inhibition) at 200 ppm [1] | percent control (mortality or growth inhibition) at 200 ppm [2] | control at 200 ppm [3] | percent control (mortality or growth inhibition) at 200 ppm [4] | percent control (mortality, anti-feeding or growth inhibition) at 200 ppm [6] | percent control (mortality, anti-feeding or growth inhibition) at 12.5 ppm [10] | mortality at 500 ppm [8]

CC(NC(=O)c1cc(OCC(F)F)cc(C(F)(F)F)c1)c1nccnc1-c1ccc(OCC(F)F)cn1 (stereo not drawn) [Compound P16, 3-(2,2-difluoroethoxy)-N-[1-[3-[5-(2,2-difluoroethoxy)-2-pyridyl]pyrazin-2-yl]ethyl]-5-(trifluoromethyl)benzamide]
≥ 80%: control at 200 ppm [3] | percent control (mortality or growth inhibition) at 200 ppm [4] | mortality at 500 ppm [8] | mortality at 200 ppm [11]

CC(NC(=O)c1cc(OC(F)F)cc(C(F)(F)F)c1)c1nccnc1-c1ncc(OC(F)F)cn1 (stereo not drawn) [Compound P26, 3-(difluoromethoxy)-N-[1-[3-[5-(difluoromethoxy)pyrimidin-2-yl]pyrazin-2-yl]ethyl]-5-(trifluoromethyl)benzamide]
≥ 80%: percent control (mortality or growth inhibition) at 200 ppm [1] | control at 200 ppm [3] | percent control (mortality or growth inhibition) at 200 ppm [4] | mortality at 12 ppm [5] | percent control (mortality, anti-feeding or growth inhibition) at 200 ppm [6] | mortality at 50 ppm [7] | mortality at 500 ppm [8]

C[C@H](NC(=O)c1cc(C(F)(F)F)cc(C(F)(F)F)c1)c1nccnc1-c1ccc(C#N)cn1 [Compound P34, N-[(1S)-1-[3-(5-cyano-2-pyridyl)pyrazin-2-yl]ethyl]-3,5-bis(trifluoromethyl)benzamide]
≥ 80%: percent control (mortality or growth inhibition) at 200 ppm [1] | control at 200 ppm [3] | percent control (mortality or growth inhibition) at 200 ppm [4] | percent control (mortality, anti-feeding or growth inhibition) at 200 ppm [6] | percent control (mortality, anti-feeding or growth inhibition) at 12.5 ppm [10] | mortality at 500 ppm [8]

CC(NC(=O)c1cc(Cl)cc(C(F)(F)F)c1)c1nccnc1-c1ncc(OCC(F)(F)F)cn1 (stereo not drawn) [Compound P37, 3-chloro-N-[1-[3-[5-(2,2,2-trifluoroethoxy)pyrimidin-2-yl]pyrazin-2-yl]ethyl]-5-(trifluoromethyl)benzamide]
≥ 80%: percent control (mortality or growth inhibition) at 200 ppm [1] | percent control (mortality or growth inhibition) at 200 ppm [2] | control at 200 ppm [3] | percent control (mortality or growth inhibition) at 200 ppm [4] | percent control (mortality, anti-feeding or growth inhibition) at 200 ppm [6] | percent control (mortality, anti-feeding or growth inhibition) at 12.5 ppm [10]

From patent US20220169629A1, “PESTICIDALLY ACTIVE DIAZINE-AMIDE COMPOUNDS” (SYNGENTA CROP PROTECTION AG, priority 2019, published 2022)
